PubChem BioAssay (NCI)
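The concentration for 50% growth inhibition is given as GI50. TGI denotes the concentration required for complete inhibition of growth.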

Columns and labels:
Assay in all cases: NCI-60 cell line screen, 384-well format
[1] = tested on: OVCAR-5 ovarian
[2] = tested on: MCF7 breast
[3] = tested on: SNB-19 CNS
[4] = tested on: MDA-MB-468 breast
[5] = tested on: UACC-257 melanoma
[6] = tested on: SK-OV-3 ovarian
[7] = tested on: RXF 393 renal
[8] = tested on: HOP-92 NSCLC
[9] = tested on: NCI-H322M lung
[10] = tested on: NCI/ADR-RES ovarian
[11] = tested on: MOLT-4 leukemia
[12] = tested on: DU-145 prostate
[13] = tested on: MDA-MB-435 melanoma
[14] = tested on: SK-MEL-28 melanoma
[15] = tested on: HCT-15 colon
[16] = tested on: KM12 colon
[17] = tested on: SK-MEL-2 melanoma
[18] = tested on: HL-60(TB) leukemia
[19] = tested on: COLO 205 colon
[20] = tested on: SR leukemia
[21] = tested on: LOX IMVI melanoma
[22] = tested on: SF-268 CNS
[23] = tested on: SK-MEL-5 melanoma
[24] = tested on: HCC-2998 colon
[25] = tested on: MALME-3M melanoma
[26] = tested on: NCI-H460 NSCLC
[27] = tested on: A498 renal
[28] = tested on: OVCAR-3 ovarian
[29] = tested on: OVCAR-8 ovarian
[30] = tested on: 786-0 renal
[31] = tested on: U251 glioblastoma
[32] = tested on: NCI-H23 lung
[33] = tested on: HT29 colon
[34] = tested on: ACHN renal
[35] = tested on: RPMI-8226 leukemia
[36] = tested on: K-562 leukemia
[37] = tested on: EKVX NSCLC
[38] = tested on: SNB-75 CNS
[39] = tested on: CCRF-CEM leukemia
[40] = tested on: SF-295 CNS
[41] = tested on: MDA-MB-231 breast
[42] = tested on: PC-3 prostate
[43] = tested on: UACC-62 melanoma
[44] = tested on: BT-549 breast
[45] = tested on: HCT-116 colon
[46] = tested on: SW-620 colon
[47] = tested on: SF-539 CNS

With `C[C@H](NC(=O)c1c(C(F)F)nn(C)c1Oc1cccc(C(F)(F)F)c1)c1ccc(C(=O)O)cc1` the GI50 [1] was > 100 µM, the TGI [1] was > 100 µM and the GI50 [2] was > 100 µM. The TGI [2] was > 100 µM, the GI50 [3] was > 100 µM and the TGI [3] was > 100 µM. For the same molecule, the GI50 [4] was > 100 µM, the TGI [4] was > 100 µM and the GI50 [5] was > 100 µM. The TGI [5] was > 100 µM, the GI50 [6] was > 100 µM and the TGI [6] was > 100 µM. The GI50 [7] was > 100 µM, the TGI [7] was > 100 µM and the GI50 [8] was > 100 µM. The TGI [8] was > 100 µM, the GI50 [9] was > 100 µM and the TGI [9] was > 100 µM. The GI50 [10] was > 100 µM, the TGI [10] was > 100 µM and the GI50 [11] was > 100 µM. The TGI [11] was > 100 µM, the GI50 [12] was > 100 µM and the TGI [12] was > 100 µM. The GI50 [13] was > 100 µM, the TGI [13] was > 100 µM and the GI50 [14] was > 100 µM. The TGI [14] was > 100 µM, the GI50 [15] was > 100 µM and the TGI [15] was > 100 µM. The GI50 [16] was > 100 µM, the TGI [16] was > 100 µM and the GI50 [17] was > 100 µM. The TGI [17] was > 100 µM, the GI50 [18] was > 100 µM and the TGI [18] was > 100 µM. The GI50 [19] was > 100 µM, the TGI [19] was > 100 µM and the GI50 [20] was > 100 µM. The TGI [20] was > 100 µM, the GI50 [21] was > 100 µM and the TGI [21] was > 100 µM. The GI50 [22] was > 100 µM, the TGI [22] was > 100 µM and the GI50 [23] was > 100 µM. For the same molecule, the TGI [23] was > 100 µM, the GI50 [24] was > 100 µM and the TGI [24] was > 100 µM. The GI50 [25] was > 100 µM, the TGI [25] was > 100 µM and the GI50 [26] was > 100 µM. The TGI [26] was > 100 µM, the GI50 [27] was > 100 µM and the TGI [27] was > 100 µM. For the same molecule, the GI50 [28] was > 100 µM, the TGI [28] was > 100 µM and the GI50 [29] was > 100 µM. For the same molecule, the TGI [29] was > 100 µM, the GI50 [30] was > 100 µM and the TGI [30] was > 100 µM. For the same molecule, the GI50 [31] was > 100 µM, the TGI [31] was > 100 µM and the GI50 [32] was > 100 µM. The TGI [32] was > 100 µM, the GI50 [33] was > 100 µM and the TGI [33] was > 100 µM. For the same molecule, the GI50 [34] was > 100 µM, the TGI [34] was > 100 µM and the GI50 [35] was > 61.1 µM. For the same molecule, the TGI [35] was > 100 µM, the GI50 [36] was > 100 µM and the TGI [36] was > 100 µM. The GI50 [37] was > 100 µM, the TGI [37] was > 100 µM and the GI50 [38] was > 100 µM. The TGI [38] was > 100 µM, the GI50 [39] was > 100 µM and the TGI [39] was > 100 µM. The GI50 [40] was > 100 µM, the TGI [40] was > 100 µM and the GI50 [41] was > 100 µM. For the same molecule, the TGI [41] was > 100 µM, the GI50 [42] was > 100 µM and the TGI [42] was > 100 µM. For the same molecule, the GI50 [43] was > 100 µM, the TGI [43] was > 100 µM and the GI50 [44] was > 100 µM. The TGI [44] was > 100 µM, the GI50 [45] was > 100 µM and the TGI [45] was > 100 µM. For the same molecule, the GI50 [46] was > 100 µM, the TGI [46] was > 100 µM and the GI50 [47] was > 100 µM. The TGI [47] was > 100 µM.
